Values joined by “and” are separate entries in the source; they are usually repeats but may differ in a detail not shown here. Identical values can stand only once. Like-named read-outs stand apart in the source and are kept apart here.
What was measured:
[1] = biological target: T1, recombinant full-length human BTK kinase (Homo sapiens, UniProt Q06187); test: BTK kinase assay: ADP generation assay (ADP-Glo); assay type: biochemical; details: 60 nM BTK, MBP substrate, 60 min
T1 construct: recombinant full-length human BTK kinase with a (His)6 tag; (His)6; purchased Invitrogen Corporation, Carlsbad, Calif
Method: The primary assay for compound inhibitory activity was the ADP generation assay described herein. Test compounds were diluted to desired concentrations in kinase reaction buffer and briefly incubated with recombinant full-length human BTK kinase with a (His)6 tag (81.3 kDa; Invitrogen Corporation, Carlsbad, Calif.). The assay as described is based on volumes used in a standard 384 well format using solid, white-wall plates. The reaction was subsequently initiated by the addition of ATP and myelin basic protein (MBP) substrate (Millipore Corporation, Waltham, Mass.). Composition of the assay reaction mixture ([…]) was: 5% v/v DMSO, 60 nM BTK, 1.6 µM ATP, and 20 µM MBP substrate. After incubation at room temperature for 60 min, […] (Promega Corporation, Madison, Wis.) was added to each well and incubated for an additional 40 minutes. The reagent stopped the kinase reaction and depleted the unconsumed ATP. Kinase Detection reagent ([…]; Promega Corporation) was then added to each well. The Kinase Detection reagent comprises reagents to convert ADP to ATP and provide luciferase and luciferin to detect ATP. Luminescence was measured on an EnVision microplate reader (PerkinElmer). The amount of luminescence from each reaction is directly correlated with BTK kinase activity. Percent inhibition and IC50 values were calculated by comparing enzyme activity in drug-treated wells to the appropriate controls.
IC50 values are determined using GraphPad Prism 5 software. The data were entered as an X-Y plot into the software as percent inhibition for each concentration of the drug. The concentration values of the drug were log transformed and the nonlinear regression was carried out using the “sigmoidal dose-response (variable slope)” option within the GraphPad software to model the data and calculate IC50 values. The IC50 values reported are the concentration of drug at which 50% inhibition was reached.
Activity (IC50) was determined in the BTK assays describe herein below, i.e. either the ADP generation assay and/or the time-resolved FRET assay, and the data are shown in Table III. The compound number corresponds to the compound numbers used in Table I. In the table below, “ADP Assay” refers to the assay which measures production of ADP resulting from use of ATP by the kinase; and “HTRF Assay” refers to the time resolved-FRET kinase assay described in the examples. Multiple values in a given column indicate the results of more than one assay for the given compound. Representative data of the type used to determine the IC50 values for the ADP assay in Table III are shown in FIG. 8 for compounds 3, 4, and 5.

[2] = Pharmacokinetics in rat; assay type: in vivo, male Sprague Dawley rats
Method: The pharmacokinetic behavior of a representative disclosed compound, compound 3 (N-(3-(6-((3-morpholinophenyl)amino)-1H-pyrazolo[3,4-d]pyrimidin-4-yl)phenyl)acrylamide), which corresponds to compound 3 in Table I, was also evaluated in rat. A study was conducted using three male Sprague Dawley rats in each group as shown below:
The solution formulations were prepared as follows: (A) intravenous route (“i.v.”): a weighed quantity of 3 (10.45 mg) was transferred into a 10 mL clean glass vial. To this 0.231 mL of ethanol (4.5%) was added, vortexed and sonicated. To this 1.028 mL of propylene glycol (20%) was added, vortexed and sonicated. 1.543 mL of PEG400 (30%) was added, vortexed and sonicated. Finally 2.340 mL of water (45.5%) was added gradually, vortexed and sonicated to make a solution of 2 mg/mL concentration. The final solution was filtered using syringe filter (0.22 μm).; and (B) a weighed quantity of SC-1344 (27.43 mg) was transferred into a 10 mL clean glass vial. To this 0.304 mL of ethanol (4.5%) was added, vortexed and sonicated. To this 1.350 mL of propylene glycol (20%) was added, vortexed and sonicated. 2.024 mL of PEG400 (30%) was added, vortexed and sonicated. Finally 3.070 mL of water (45.5%) was added gradually, vortexed and sonicated to make a solution of 4 mg/mL concentration. The final solution was filtered using syringe filter (0.22 μm).
Bioanalysis was performed using fit-for-purpose LC-MS/MS method for the quantification of 3 in rat plasma samples. The calibration curve (CC) for the method consisted of nine non-zero calibration standards along with a double blank and zero standard samples. Study samples were analyzed along with two sets of quality control samples (6 QC samples; low, medium and high QC samples in triplicate). Briefly, the LC-MS/MS method used the following parameters: a) gradient mobile phase (Pump A: 0.1% Formic acid in water; Pump B: 100% methanol); b) XBridge C8, 50×4.6 mm, 3.5μ (Waters) column; c) 10 μL injection volume; d) 1.00 mL/min flow rate; e) 3.50 min run time; f) 10° C. sample cooler temperature; and g) 40° C. column oven temperature. The sample calibration curve was 1.02-1023 ng/mL, with an internal standard (telmisartan) at 0.2 μg/mL. Briefly, biological samples were prepared as follows: 50 μL of sample was mixed with 150 μL of internal standard, then mixture was vortexed for 5 min at 800 rpm, followed by centrifugation at 4000 rpm for 5 min; 150 μL of the sample supernatant was transferred into a separate tube and diluted with 75 μL of methanol: water (1:1), followed by injection into LC/MS/MS.
Plasma pharmacokinetic parameters were calculated using the non-compartmental analysis tool of Phoenix software (Version 6.3) and were determined from individual animals in each group. The area under the plasma concentration-time curve (AUC0-t and AUCinf), elimination half-life (T1/2), clearance (CL), volume of distribution (Vss) and Mean residence time (MRT) were calculated from intravenous group. The peak plasma concentration (Cmax), time to achieve peak plasma concentration (Tmax), AUC0-t and AUCinf, and absolute oral bioavailability (F) were calculated from the oral group.
The mean plasma concentration-time profiles are shown in FIGS. 10 and 11, i.e. the mean concentration values of the individual values obtained from each rat in the study group at the indicated time points.

T1 sequence (Q06187 whole entry): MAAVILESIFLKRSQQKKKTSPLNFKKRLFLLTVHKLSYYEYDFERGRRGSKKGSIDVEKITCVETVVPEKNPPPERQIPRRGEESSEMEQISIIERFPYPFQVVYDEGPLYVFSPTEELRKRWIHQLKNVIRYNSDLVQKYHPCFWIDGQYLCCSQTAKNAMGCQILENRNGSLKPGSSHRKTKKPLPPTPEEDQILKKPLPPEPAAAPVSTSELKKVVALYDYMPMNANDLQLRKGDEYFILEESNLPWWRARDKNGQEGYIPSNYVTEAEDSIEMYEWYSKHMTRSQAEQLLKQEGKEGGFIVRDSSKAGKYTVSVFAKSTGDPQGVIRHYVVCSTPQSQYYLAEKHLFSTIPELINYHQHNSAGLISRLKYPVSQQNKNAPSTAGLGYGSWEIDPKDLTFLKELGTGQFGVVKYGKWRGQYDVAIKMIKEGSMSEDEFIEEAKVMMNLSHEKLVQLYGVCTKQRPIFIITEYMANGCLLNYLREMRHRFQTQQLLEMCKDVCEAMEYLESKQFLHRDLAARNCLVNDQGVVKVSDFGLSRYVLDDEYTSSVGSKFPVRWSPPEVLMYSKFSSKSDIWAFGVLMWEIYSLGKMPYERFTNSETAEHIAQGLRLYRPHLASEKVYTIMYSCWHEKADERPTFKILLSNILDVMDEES

IC50 [1]: 5 nM and 6 nM and 8 nM
AUC(0-t) ([2]; IV 5 mg/kg, solution, 5 mg/kg): 1063 ng·h/mL
CL ([2]; IV 5 mg/kg, solution, 5 mg/kg): 79.7 mL/min/kg
T1/2 ([2]; IV 5 mg/kg, solution, 5 mg/kg): 2.71 h
Vss ([2]; IV 5 mg/kg, solution, 5 mg/kg): 7.91 L/kg
F (absolute oral bioavailability) ([2]; PO 20 mg/kg vs IV 5 mg/kg, AUC0-t and nominal doses used): 2.44%
Cmax ([2]; PO 20 mg/kg, solution, 20 mg/kg): 23.1 ng/mL
AUC(0-inf) ([2]; male, Sprague Dawley, plasma, IV 5 mg/kg, solution): 1070 ng·h/mL
Cmax ([2]; male, Sprague Dawley, plasma, IV 5 mg/kg, solution, read-out: Cmax (back-extrapolated concentration)): 1840 ng/mL
AUC(0-inf) ([2]; male, Sprague Dawley, plasma, PO 20 mg/kg, solution, one animal data): 254 ng·h/mL
Tmax ([2]; male, Sprague Dawley, plasma, PO 20 mg/kg, solution, read-out: Tmax (median)): 2 h
AUC(0-t) ([2]; male, Sprague-Dawley, plasma, PO 20 mg/kg, solution, read-out: AUC0-t): 104 ng·h/mL
SMILES: C=CC(=O)Nc1cccc(-c2nc(Nc3cccc(N4CCOCC4)c3)nc3[nH]ncc23)c1 [Compound 3, N-(3-(6-((3-morpholinophenyl)amino)-1H-pyrazolo[3,4-d]pyrimidin-4-yl)phenyl)acrylamide]
